Legend:
GSK3 = GSK3 inhibitor; cited from earlier work
GSK3β = GSK3β (Homo sapiens, UniProt P49841); conditions: cited from earlier work
pNSCs = test: pNSC self-renewal, clonogenicity and culture on Matrigel; type: cell-based, human
Procedure: (§1) hESCs (HUES9 and HUES1) at about 20% confluence were treated with 3 μM CHIR99021 (Cellagentech), 2 μM SB431542 (Cellagentech), 0.1 μM Compound E (γ-Secretase Inhibitor XXI, EMD Chemicals Inc.) in neural induction media containing Advanced DMEM/F12:Neurobasal (1:1), 1×N2, 1×B27, 1% Glutmax, 5 μg/mL BSA and 10 ng/mL hLIF (Millipore), for 7 d. The culture was then split 1:3 for the next six passages using Accutase and cultured in neural induction media supplemented with 3 μM CHIR99021 and 2 μM SB431542 on X-ray inactivated MEF feeders or Matrigel-coated plates. After six passages, the cells were split 1:10 regularly. Neural induction of H1 hESCs follows the same protocol, but using 4 μM CHIR99021, 3 μM SB431542, and 0.1 μM compound E in the first 7 d, after which the cells were regularly cultured with neural induction media supplemented with 3 μM CHIR99021 and 2 μM SB431542. During the initial few passages, overnight treatment with the ROCK inhibitor (Y-27632, 5 μM, Cellagentech) was also used to enhance cell survival, but not required in following passages. In the present study, neural induction data were collected under feeder conditions except the FACS analysis of FIG. 6 performed under feeder-free condition. pNSCs were expanded on Matrigel-coated surfaces.
pNSCs can long-term self-renew over serial passages on Matrigel with SBR431542, CHIR, and hLIF. pNSCs generated from HUES9 and H1 hESCs were routinely passaged 1:10 and have been cultured for >30 passages without obviously losing proliferative capacity, which is equivalent to at least 94 population doublings. However, individual omission of hLIF, SB431542, or CHIR from the media compromised pNSCs' long-term self-renewal. Single pNSC is clonogenic on Matrigel in the presence of hLIF/SB431542/CHIR (FIG. 2A). […] Despite their highly proliferative and clonogenic capacity, pNSCs are not tumorigenic in SCID beige mice.

gamma secretase = conditions: read-out: IC50, gamma secretase inhibitor; cited from earlier work
Notch signaling = Notch signaling inhibitor and gamma secretase inhibitor; cited from earlier work
SAPK2/p38 = SAPK2/p38 (Homo sapiens, UniProt Q16539); conditions: inhibitor of CK1 and ALK5; cited from earlier work
Sequence of SAPK2/p38 (Q16539 whole entry): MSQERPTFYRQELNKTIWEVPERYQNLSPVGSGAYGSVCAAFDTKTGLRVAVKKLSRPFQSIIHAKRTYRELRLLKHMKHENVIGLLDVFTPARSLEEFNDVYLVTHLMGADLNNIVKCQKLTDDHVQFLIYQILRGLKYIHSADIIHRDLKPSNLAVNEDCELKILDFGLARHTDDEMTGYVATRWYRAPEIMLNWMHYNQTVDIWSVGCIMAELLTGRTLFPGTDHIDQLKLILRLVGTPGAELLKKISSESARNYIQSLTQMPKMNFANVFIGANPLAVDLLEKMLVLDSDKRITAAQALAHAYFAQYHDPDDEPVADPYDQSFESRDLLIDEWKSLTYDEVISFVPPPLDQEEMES

hESCs = test: Neural induction of hESCs (real-time PCR, immunocytochemistry, flow cytometry); type: cell-based, human
Procedure: as §1, with “[…]),” for “CHIR99021 (Cellagentech),”, “([…]),” for “(Cellagentech),”, “Neural induction of H1 hESCs follows the same protocol, but using 4 μM CHIR99021, 3 μM SB431542, and 0.1 μM compound E in the first 7 d, after which the cells were regularly cultured with neural induction media supplemented with 3 μM CHIR99021 and 2 μM SB431542.” left out, “([…])” for “(Y-27632, 5 μM, Cellagentech)”, “surfaces. For immunofluorescence assays, pNSCs were fixed in 4% paraformaldehyde for 10 min. Specifically, 4% paraformaldehyde with 0.15% picric acid was used to fix the neuronal differentiation culture. For immunostaining of GABA antigen, the cells were fixed in 4% paraformaldehyde, 0.15% picric acid and 0.02% Glutaraldehyde. […]” for “surfaces.”

Sequence of GSK3β (P49841 whole entry, species assumed): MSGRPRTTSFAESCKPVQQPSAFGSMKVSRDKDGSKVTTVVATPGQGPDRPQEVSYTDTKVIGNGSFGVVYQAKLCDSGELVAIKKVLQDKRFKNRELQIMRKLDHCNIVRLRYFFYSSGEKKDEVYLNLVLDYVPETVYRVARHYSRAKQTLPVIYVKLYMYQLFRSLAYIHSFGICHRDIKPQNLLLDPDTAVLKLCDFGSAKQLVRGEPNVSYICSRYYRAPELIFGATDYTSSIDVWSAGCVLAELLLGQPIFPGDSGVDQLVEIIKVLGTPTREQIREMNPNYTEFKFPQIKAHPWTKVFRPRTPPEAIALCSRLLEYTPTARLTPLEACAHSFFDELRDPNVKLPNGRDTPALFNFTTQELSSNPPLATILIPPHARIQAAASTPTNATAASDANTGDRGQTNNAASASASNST

O=C1NC(=O)C(c2cccc3c2OCO3)N1 (stereo not drawn) [(Z)-5-(2,3-Methylenedioxyphenyl)imidazolidine-2,4-dione]
IC50 (GSK3β): 27 nM

C[C@H](NC(=O)Cc1cc(F)cc(F)c1)C(=O)N[C@H]1N=C(c2ccccc2)c2ccccc2N(C)C1=O [Compound E, (S,S)-2-[2-(3,5-Difluorophenyl)-acetylamino]-N-(1-methyl-2-oxo-5-phenyl-2,3-dihydro-1H-benzo[e][1,4]diazepin-3-yl)-propionamide]
effect on established pNSCs (pNSCs; 48 h treatment): rapidly induced pNSCs to differentiate into Double cortin (DCX)-positive neuronal precursors
colony formation from single pNSC (pNSCs; on Matrigel): no colonies were observed
IC50 (gamma secretase): ~0.3 nM

CCC[C@H](N[C@H]1CCc2cc(F)cc(F)c2C1)C(=O)Nc1cn(C(C)(C)CNCC(C)(C)C)cn1 [PF-03084014, (S)-2-(((S)-6,8-difluoro-1,2,3,4-tetrahydronaphthalen-2-yl)amino)-N-(1-(2-methyl-1-(neopentylamino)propan-2-yl)-1H-imidazol-4-yl)pentanamide]
IC50 (Notch signaling): 13.3 nM

NC(=O)c1ccc(-c2nc(-c3ccc4c(c3)OCCO4)c(-c3ccccn3)[nH]2)cc1 [D 4476, 4-[4-(2,3-Dihydro-1,4-benzodioxin-6-yl)-5-(2-pyridinyl)-1H-imidazol-2-yl]benzamide]
selectivity over SAPK2/p38 (SAPK2/p38): > 20 fold

bFGF: basic fibroblast growth factor, 20 ng/mL in neural induction media
morphology of pNSCs (pNSCs; neural induction media with 20 ng/mL bFGF, 4 d): gained rosette-like structures

B1: Wnt3a: Wnt3a used to replace CHIR in the neural induction protocol (protein, UniProt P56704 19-352, looked up)
Protein Wnt-3a: SYPIWWSLAVGPQYSSLGSQPILCASIPGLVPKQLRFCRNYVEIMPSVAEGIKIGIQECQHQFRGRRWNCTTVHDSLAIFGPVLDKATRESAFVHAIASAGVAFAVTRSCAEGTAAICGCSSRHQGSPGKGWKWGGCSEDIEFGGMVSREFADARENRPDARSAMNRHNNEAGRQAIASHMHLKCKCHGLSGSCEVKTCWWSQPDFRAIGDFLKDKYDSASEMVVEKHRESRGWVETLRPRYTYFKVPTERDLVYYEASPNFCEPNPETGSFGTRDRTCNVSSHGIDGCDLLCCGRGHNARAERRREKCRCVFHWCCYVSCQECTRVYDVHTCK
effect of replacing CHIR in the neural induction protocol (hESCs): induced significant spontaneous differentiation and did not generate a homogenous NSC population

From patent US8883502B2, “Expandable cell source of neuronal stem cell populations and methods for obtaining and using them” (The Regents of the University of California, priority 2010, dated 2014)
